# ChEMBL document CHEMBL1201862, “PubChem BioAssay data set” (2004)
#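 Method: 48-hour compound exposure of cells in 96-well plates, five concentrations, linear interpolation of endpoints. The concentration for 50% growth inhibition is given as GI50.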 The source made the active and inactive calls. Rule as the data show it: active = GI50 up to about 1.1 µM and inactive = higher.
# Experiments:
# Test in all cases: growth of human tumour cells (NCI), 48 h
# [1] = system: MDA-MB-435
# [2] = system: SK-MEL-28
# [3] = system: UACC-62
# [4] = system: IGROV-1
# [5] = system: TK-10
# [6] = system: CCRF-CEM
# [7] = system: LOX IMVI
# [8] = system: Hs-578T
# [9] = system: HCT-116
# [10] = system: SK-OV-3
# [11] = system: MDA-MB-231
# [12] = system: UACC-257
# [13] = system: BT-549
# [14] = system: SN12C
# [15] = system: OVCAR-3
# [16] = system: HOP-62
# [17] = system: SK-MEL-2
# [18] = system: OVCAR-5
# [19] = system: T47D
# [20] = system: KM12
# [21] = system: U-251
# [22] = system: HT-29
# [23] = system: SF-268
# [24] = system: NCI-H522
# [25] = system: SF-539
# [26] = system: HCT-15
# [27] = system: UO-31
# [28] = system: CAKI-1
# [29] = system: PC-3
# [30] = system: 786-0
# [31] = system: SNB-19
# [32] = system: ACHN
# [33] = system: A498
# [34] = system: COLO 205
# [35] = system: OVCAR-4
# [36] = system: SF-295
# [37] = system: SK-MEL-5
# [38] = system: M14
# [39] = system: SW-620
# [40] = system: EKVX
# [41] = system: MCF7
# [42] = system: MDA-N
# [43] = system: HCC 2998
# [44] = system: NCI/ADR-RES
# [45] = system: NCI-H23
# [46] = system: A549
# [47] = system: DU-145
# [48] = system: OVCAR-8
# [49] = system: NCI-H460
# [50] = system: Malme-3M
# [51] = system: MOLT-4
# [52] = system: SNB-75
# [53] = system: NCI-H226
# [54] = system: RXF 393
# [55] = system: RPMI-8226
# [56] = system: K562
# [57] = system: HL-60
# [58] = system: HOP-92
compound,measurement,setting,value
OCC(O)COCn1nncc1Cn1ncc2c(SCc3ccccc3)ncnc21 (stereo unspecified),GI50,[1],> 100 µM (inactive)
same,GI50,[2],> 100 µM (inactive)
same,GI50,[3],> 100 µM (inactive)
same,GI50,[4],> 100 µM (inactive)
same,GI50,[5],> 100 µM (inactive)
same,GI50,[6],> 100 µM (inactive)
same,GI50,[7],> 100 µM (inactive)
same,GI50,[8],0.203 µM (active)
same,GI50,[9],> 100 µM (inactive)
same,GI50,[10],> 100 µM (inactive)
same,GI50,[11],> 100 µM (inactive)
same,GI50,[12],> 100 µM (inactive)
same,GI50,[13],> 100 µM (inactive)
same,GI50,[14],> 100 µM (inactive)
same,GI50,[15],> 100 µM (inactive)
same,GI50,[16],> 100 µM (inactive)
same,GI50,[17],> 100 µM (inactive)
same,GI50,[18],> 100 µM (inactive)
same,GI50,[19],> 100 µM (inactive)
same,GI50,[20],> 100 µM (inactive)
same,GI50,[21],> 100 µM (inactive)
same,GI50,[22],> 100 µM (inactive)
same,GI50,[23],14.5 µM (inactive)
same,GI50,[24],8.89 µM (inactive)
same,GI50,[25],> 100 µM (inactive)
same,GI50,[26],> 100 µM
same,GI50,[27],> 100 µM (inactive)
same,GI50,[28],> 100 µM (inactive)
same,GI50,[29],> 100 µM (inactive)
same,GI50,[30],> 100 µM (inactive)
same,GI50,[31],> 100 µM (inactive)
same,GI50,[32],> 100 µM (inactive)
same,GI50,[33],> 100 µM (inactive)
same,GI50,[34],> 100 µM (inactive)
same,GI50,[35],> 100 µM (inactive)
same,GI50,[36],> 100 µM (inactive)
same,GI50,[37],> 100 µM (inactive)
same,GI50,[38],> 100 µM (inactive)
same,GI50,[39],> 100 µM (inactive)
same,GI50,[40],> 100 µM (inactive)
same,GI50,[41],> 100 µM (inactive)
same,GI50,[42],> 100 µM (inactive)
same,GI50,[43],> 100 µM (inactive)
same,GI50,[44],> 100 µM (inactive)
same,GI50,[45],> 100 µM (inactive)
same,GI50,[46],> 100 µM (inactive)
same,GI50,[47],> 100 µM (inactive)
same,GI50,[48],> 100 µM (inactive)
NC(=O)NNC(=O)c1nc[nH]c1[N+](=O)[O-],GI50,[49],> 100 µM (inactive)
same,GI50,[1],> 100 µM (inactive)
same,GI50,[50],> 100 µM (inactive)
same,GI50,[2],> 100 µM (inactive)
same,GI50,[51],> 100 µM (inactive)
same,GI50,[3],> 100 µM (inactive)
same,GI50,[4],> 100 µM (inactive)
same,GI50,[5],> 100 µM (inactive)
same,GI50,[6],> 100 µM (inactive)
same,GI50,[52],> 100 µM (inactive)
same,GI50,[7],> 100 µM (inactive)
same,GI50,[8],> 100 µM (inactive)
same,GI50,[9],> 100 µM (inactive)
same,GI50,[10],> 100 µM (inactive)
same,GI50,[11],> 100 µM (inactive)
same,GI50,[12],> 100 µM (inactive)
same,GI50,[13],> 100 µM (inactive)
same,GI50,[14],> 100 µM (inactive)
same,GI50,[15],> 100 µM (inactive)
same,GI50,[16],> 100 µM (inactive)
same,GI50,[17],> 100 µM (inactive)
same,GI50,[18],> 100 µM (inactive)
same,GI50,[19],> 100 µM (inactive)
same,GI50,[21],> 100 µM (inactive)
same,GI50,[22],> 100 µM (inactive)
same,GI50,[23],> 100 µM (inactive)
same,GI50,[53],> 100 µM (inactive)
same,GI50,[24],> 100 µM (inactive)
same,GI50,[25],> 100 µM (inactive)
same,GI50,[26],> 100 µM
same,GI50,[27],> 100 µM (inactive)
same,GI50,[54],> 100 µM (inactive)
same,GI50,[28],> 100 µM (inactive)
same,GI50,[29],> 100 µM (inactive)
same,GI50,[30],> 100 µM (inactive)
same,GI50,[55],> 100 µM (inactive)
same,GI50,[33],> 100 µM (inactive)
same,GI50,[34],> 100 µM (inactive)
same,GI50,[35],> 100 µM (inactive)
same,GI50,[37],> 100 µM (inactive)
same,GI50,[38],> 100 µM (inactive)
same,GI50,[39],> 100 µM (inactive)
same,GI50,[56],> 100 µM (inactive)
same,GI50,[40],> 100 µM (inactive)
same,GI50,[41],> 100 µM (inactive)
same,GI50,[42],> 100 µM (inactive)
same,GI50,[43],> 100 µM (inactive)
same,GI50,[44],> 100 µM (inactive)
same,GI50,[45],> 100 µM (inactive)
same,GI50,[46],> 100 µM (inactive)
same,GI50,[47],> 100 µM (inactive)
same,GI50,[48],> 100 µM (inactive)
COc1ccc2nc(N/N=C/c3sccc3C)cc(C)c2c1,GI50,[49],13.2 µM (inactive)
same,GI50,[1],14.1 µM (inactive)
same,GI50,[50],17.5 µM (inactive)
same,GI50,[2],18.1 µM (inactive)
same,GI50,[51],18.7 µM (inactive)
same,GI50,[3],13.1 µM (inactive)
same,GI50,[4],15.1 µM (inactive)
same,GI50,[5],12 µM (inactive)
same,GI50,[6],19.5 µM (inactive)
same,GI50,[52],15 µM (inactive)
same,GI50,[7],15.6 µM (inactive)
same,GI50,[8],18.6 µM (inactive)
same,GI50,[9],11.6 µM (inactive)
same,GI50,[10],13.2 µM (inactive)
same,GI50,[11],0.406 µM (active)
same,GI50,[57],18.3 µM (inactive)
same,GI50,[12],17 µM (inactive)
same,GI50,[13],15.6 µM (inactive)
same,GI50,[14],19.4 µM (inactive)
same,GI50,[15],18.8 µM (inactive)
same,GI50,[16],16.4 µM (inactive)
same,GI50,[17],21.6 µM (inactive)
same,GI50,[18],23.2 µM (inactive)
same,GI50,[19],42.9 µM (inactive)
same,GI50,[20],22.5 µM (inactive)
same,GI50,[21],15.4 µM (inactive)
same,GI50,[22],8.67 µM (inactive)
same,GI50,[23],16.5 µM (inactive)
same,GI50,[53],18.8 µM (inactive)
same,GI50,[26],14.1 µM
same,GI50,[27],15.1 µM (inactive)
same,GI50,[54],19.1 µM (inactive)
same,GI50,[28],> 100 µM (inactive)
same,GI50,[29],17.1 µM (inactive)
same,GI50,[30],14.4 µM (inactive)
same,GI50,[31],29 µM (inactive)
same,GI50,[55],9.38 µM (inactive)
same,GI50,[32],16.3 µM (inactive)
same,GI50,[33],12.2 µM (inactive)
same,GI50,[34],13.6 µM (inactive)
same,GI50,[35],21.4 µM (inactive)
same,GI50,[36],7.23 µM (inactive)
same,GI50,[37],12.9 µM (inactive)
same,GI50,[38],11.9 µM (inactive)
same,GI50,[39],20.8 µM (inactive)
same,GI50,[56],38 µM (inactive)
same,GI50,[40],18.2 µM (inactive)
same,GI50,[41],22.5 µM (inactive)
same,GI50,[42],16.5 µM (inactive)
same,GI50,[43],17.5 µM (inactive)
same,GI50,[44],21.6 µM (inactive)
same,GI50,[45],10.1 µM (inactive)
same,GI50,[46],20.5 µM (inactive)
same,GI50,[47],19.4 µM (inactive)
same,GI50,[58],6.07 µM (inactive)
same,GI50,[48],37.8 µM (inactive)
